Reference: patent US9796753B2, “N-substituted indenoisoquinolines and syntheses thereof” (Purdue Research Foundation, priority 2005, dated 2017)

Tests used:
Type in all cases: cell-based
[1] = system: CNS SF-539; experiment: COMPARE screening (NCI human cancer cell line screen), cytotoxicity GI50
Method: (§1) Selected compounds were tested for antiproliferative activity in the National Cancer Institute's developmental therapeutics assay 60 cell line screen (NCI60). The cells were incubated with the tested compounds at 100, 10, 1, 0.1, and 0.01 μM concentrations for 48 h before treatment with sulforhodamine B dye. Optical densities were recorded, and their ratios relative to that of the control were plotted as percentage growth against the log 10 of the tested compound concentrations.

[2] = system: colon HCT-116; experiment: as above
Method: as §1

[3] = system: lung HOP-62; experiment: as above
Method: as §1

[4] = system: melanoma UACC-62; experiment: as above
Method: as §1

[5] = system: ovarian OVCAR-3; experiment: as above
Method: as §1

[6] = system: prostate DU-145; experiment: as above
Method: as §1

[7] = system: renal SN12C; experiment: as above
Method: as §1

[8] = system: breast MDA-MB-435; experiment: as above
[9] = system: all human cancer cell lines successfully tested; experiment: NCI screen mean graph midpoint (MGM) for growth inhibition; details: Table 1; average GI50 of all cell lines tested (approximately 55), test range 10^−8 to 10^−4 molar
Method: COMPARE screening. The compounds described herein were examined for antiproliferative activity against the human cancer cell lines in the National Cancer Institute screen (COMPARE screening), in which the activity of each compound was evaluated with approximately 55 different cancer cell lines of diverse tumor origins. […] Therefore, the MGM value represents an overall assessment of toxicity of the compound across numerous cell lines.
as §1
The cytotoxicities of the compounds to cultured cancer cells were measured in the National Cancer Institute's 60 cell line assay (a.k.a. NCI-60).

**Q.** COc1ccc2c(c1)C(=O)c1c-2n(CCCCl)c(=O)c2cc([N+](=O)[O-])ccc12 [Compound 5ba] was tested. Which GI50 [1] did it give?
**A.** 27 nM

**Q.** And the GI50 [2]?
**A.** 794 nM

**Q.** And the GI50 [3]?
**A.** 295 nM

**Q.** What about the GI50 [4] of the same molecule?
**A.** < 10 nM

**Q.** And the GI50 [5]?
**A.** 3390 nM

**Q.** What about the GI50 [6] of the same molecule?
**A.** 36 nM

**Q.** What about the GI50 [7] of the same molecule?
**A.** < 10 nM

**Q.** What about the GI50 [8] of the same molecule?
**A.** 3240 nM

**Q.** What about the “MGM (mean graph midpoint for growth inhibition)” value [9] of the same molecule?
**A.** 0.178 ± 0.012 µM

**Q.** How did the GI50 [1] turn out when COc1ccc2c(c1)C(=O)c1c-2n(CCCN=[N+]=[N-])c(=O)c2ccccc12 [Compound 5bf] was run?
**A.** 44700 nM

**Q.** What about the GI50 [2] of the same molecule?
**A.** 26900 nM

**Q.** And the GI50 [3]?
**A.** 33900 nM

**Q.** What about the GI50 [4] of the same molecule?
**A.** 75900 nM

**Q.** And the GI50 [5]?
**A.** 52500 nM

**Q.** What about the GI50 [6] of the same molecule?
**A.** 61700 nM

**Q.** What about the GI50 [7] of the same molecule?
**A.** > 100000 nM

**Q.** What about the GI50 [8] of the same molecule?
**A.** 64600 nM

**Q.** What about the MGM (mean GI50 across cell lines) [9] of the same molecule?
**A.** 38900 nM

**Q.** With COc1ccc2c(c1)C(=O)c1c-2n(CCCN2CCOCC2)c(=O)c2ccccc12 [Compound 5bk] as the molecule, how does the GI50 [1] read?
**A.** 1950 nM

**Q.** What about the GI50 [2] of the same molecule?
**A.** 1260 nM

**Q.** And the GI50 [3]?
**A.** 1410 nM

**Q.** What about the GI50 [4] of the same molecule?
**A.** 1580 nM

**Q.** What about the GI50 [5] of the same molecule?
**A.** 2690 nM

**Q.** What about the GI50 [6] of the same molecule?
**A.** 2290 nM

**Q.** And the GI50 [7]?
**A.** 4070 nM

**Q.** What about the GI50 [8] of the same molecule?
**A.** 4680 nM

**Q.** And the “MGM (mean graph midpoint for growth inhibition)” value [9]?
**A.** 2.70 ± 0.125 µM

**Q.** Cl.O=C1c2ccccc2-c2c1c1ccc([N+](=O)[O-])cc1c(=O)n2CCCNCCO [Compound 5bl] was tested. Which GI50 [1] did it give?
**A.** > 100000 nM

**Q.** What about the GI50 [2] of the same molecule?
**A.** 27 nM

**Q.** What about the GI50 [3] of the same molecule?
**A.** 31 nM

**Q.** What about the GI50 [4] of the same molecule?
**A.** 200 nM

**Q.** And the GI50 [5]?
**A.** 1350 nM

**Q.** What about the GI50 [6] of the same molecule?
**A.** > 100000 nM

**Q.** And the GI50 [7]?
**A.** 229 nM

**Q.** And the GI50 [8]?
**A.** 1070 nM

**Q.** And the “MGM (mean graph midpoint for growth inhibition)” value [9]?
**A.** 0.296 ± 0.067 µM

**Q.** Which results are given for COc1ccc2c(c1)C(=O)c1c-2n(CCCNCCO)c(=O)c2ccccc12.Cl [Compound 5bn]?
**A.** GI50 [1]: 112 nM; GI50 [2]: 44 nM; GI50 [3]: 26 nM; GI50 [4]: 550 nM; GI50 [5]: 417 nM; GI50 [6]: 55 nM; GI50 [7]: 158 nM; GI50 [8]: 389 nM; MGM (mean graph midpoint for growth inhibition) [9]: 0.124 ± 0.014 µM

**Q.** How did the GI50 [1] turn out when COc1ccc2c(c1)C(=O)c1c-2n(CCCN(C)C)c(=O)c2cc([N+](=O)[O-])ccc12 [Compound 5bp] was run?
**A.** < 10 nM

**Q.** And the GI50 [2]?
**A.** < 10 nM

**Q.** And the GI50 [3]?
**A.** < 10 nM

**Q.** What about the GI50 [4] of the same molecule?
**A.** < 10 nM

**Q.** And the GI50 [5]?
**A.** 28 nM

**Q.** And the GI50 [6]?
**A.** < 10 nM

**Q.** What about the GI50 [7] of the same molecule?
**A.** < 10 nM

**Q.** What about the GI50 [8] of the same molecule?
**A.** < 10 nM

**Q.** And the “MGM (mean graph midpoint for growth inhibition)” value [9]?
**A.** 0.020 ± 0.001 µM

**Q.** Which results are given for COc1ccc2c(c1)C(=O)c1c-2n(CCCN(C)C)c(=O)c2ccccc12 [Compound 5bq]?
**A.** GI50 [1]: 240 nM; GI50 [2]: 102 nM; GI50 [3]: 78 nM; GI50 [4]: 1000 nM; GI50 [5]: 427 nM; GI50 [6]: 257 nM; GI50 [7]: 245 nM; GI50 [8]: 617 nM; MGM (mean graph midpoint for growth inhibition) [9]: 0.300 ± 0.072 µM

**Q.** With COc1ccc2c(c1)C(=O)c1c-2n(CCCn2ccnc2)c(=O)c2cc([N+](=O)[O-])ccc12 [Compound 5br] as the molecule, how does the GI50 [1] read?
**A.** < 10 nM

**Q.** What about the GI50 [2] of the same molecule?
**A.** < 10 nM

**Q.** And the GI50 [3]?
**A.** < 10 nM

**Q.** What about the GI50 [4] of the same molecule?
**A.** < 10 nM

**Q.** What about the GI50 [5] of the same molecule?
**A.** 20 nM

**Q.** And the GI50 [6]?
**A.** < 10 nM

**Q.** What about the GI50 [7] of the same molecule?
**A.** < 10 nM

**Q.** And the GI50 [8]?
**A.** < 10 nM

**Q.** What about the “MGM (mean graph midpoint for growth inhibition)” value [9] of the same molecule?
**A.** 0.019 ± 0.004 µM

**Q.** What does the source list for COc1ccc2c(c1)C(=O)c1c-2n(CCCn2ccnc2)c(=O)c2ccccc12 [Compound 5bs]?
**A.** GI50 [1]: 178 nM; GI50 [2]: 110 nM; GI50 [3]: 56 nM; GI50 [4]: 71 nM; GI50 [5]: 1660 nM; GI50 [6]: 204 nM; GI50 [7]: 676 nM; GI50 [8]: 646 nM; MGM (mean graph midpoint for growth inhibition) [9]: 0.416 ± 0.134 µM

**Q.** With COc1cc2c3c(n(CCCn4ccnc4)c(=O)c2cc1OC)-c1ccccc1C3=O [Compound 5e] as the molecule, how does the GI50 [1] read?
**A.** < 10 nM

**Q.** What about the GI50 [2] of the same molecule?
**A.** 10 nM

**Q.** What about the GI50 [3] of the same molecule?
**A.** < 10 nM

**Q.** What about the GI50 [4] of the same molecule?
**A.** < 10 nM

**Q.** And the GI50 [5]?
**A.** < 10 nM

**Q.** And the GI50 [6]?
**A.** < 10 nM

**Q.** What about the GI50 [7] of the same molecule?
**A.** < 10 nM

**Q.** And the GI50 [8]?
**A.** 14 nM

**Q.** What about the MGM (mean GI50 across cell lines) [9] of the same molecule?
**A.** 33 nM
